Data on 34 compounds can be found in PubChem BioAssay AID1159561 (GlaxoSmithKline (GSK), 2015).

A word on the IC50: it is the concentration needed to halve the response being measured. Broadly, the pIC50 is −log10 of the IC50, conventionally taken in molar units.

pIC50: −log10 of the molar value. Calls of active or inactive are those of the source.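 The calls were made as follows: active = toxic to mouse fibroblast host cells, with IC50 below 50 µM; inactive = the rest.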

The test system of this test is NIH-3T3 viability, ATP luminescence. Put plainly: murine fibroblast viability via ATP level – cell-based, murine fibroblasts, cytotoxicity control for Trypanosoma cruzi inhibitor project (AID 1159561). As to conditions: 4 days.
In the case of `Cc1nnnn1-c1cccc(C(=O)N2CCC[C@@]3(C)c4ncncc4CCC23)c1` (some centres undefined), the IC50 is > 50 µM (inactive).

In the case of `COc1ccc(C(=O)Nc2cc(C(F)(F)F)ccc2N2CCOCC2)c(OC)c1`, the pIC50 is 4.49. Consider `COc1ccc(S(=O)(=O)Nc2ccccc2OC)cc1NC(=O)CCCc1c[nH]c2ccccc12`, for which the IC50 is > 50 µM (inactive). Still for that read-out and setting: next, `Cc1nc2nc(C)c(Cc3ccc(C(C)C)cc3)c(=O)n2[nH]1`: > 50 µM (inactive). On to `COc1ccc2ncc(=O)n(CCN3CCOC(CNCc4ccc(C(F)(F)F)cc4F)C3)c2n1` (centres undefined), for which the pIC50 is 5.40. The same measure, in the same setting: next, `CN1CCN(c2nc(-c3ccc(Cl)cc3)c3c(N)n(C)nc3n2)CC1`: 4.60; `O=C(Nc1nc(-c2ccc(S(=O)(=O)N3CCOCC3)cc2)cs1)c1ccc([N+](=O)[O-])cc1`: 4.60; `CC(=O)Nc1ccc(-c2csc(NC(=O)c3ccc([N+](=O)[O-])s3)n2)cc1`: 5.20. On to `COc1ccc2c(Cl)c(C(=O)N3CCC3)sc2c1Cl`, for which the IC50 was > 50 µM (inactive). `COc1ccc(C2CC(c3ccccc3Cl)=NN2C(=O)CNC(=O)C2CCC2)cc1` (centres undefined): the pIC50 is 4.49. As to `CC1=NN(C(=O)CCn2cnc([N+](=O)[O-])n2)C(O)(C(F)(F)F)C1` (centres undefined), the IC50 is > 50 µM (inactive). In the case of `Cc1ccc(NC(=O)c2ccc(Cl)c(NC(=O)c3ccc([N+](=O)[O-])cc3)c2)cc1`, the pIC50 is 4.70. Still for that read-out and setting: the value for `CN(Cc1ccc(C(N)=O)cc1)C(c1ccc(F)cc1)c1cccnc1` (centres undefined) was 4.49. For the compound `Cc1cccc(NS(=O)(=O)c2ccc3c(c2)C(=O)c2cc(S(=O)(=O)Nc4cccc(C)c4C)ccc2-3)c1C`, the IC50 was > 50 µM (inactive). As to `CN(C(=O)Nc1ccc2c(c1)CCN(C1CCC1)CC2)c1ccc(C#N)cc1`, the pIC50 is 4.40.

On to `Cc1ccc2c(c1)-c1onc(C(=O)N3CCCCC3c3cccnc3)c1CO2` (centres undefined), for which the pIC50 is 4.70. For the compound `N#Cc1cc(N2CCCC2=O)ccc1Sc1ccccc1CO`, the IC50 was > 50 µM (inactive). `O=S(=O)(c1cccc(CSc2nnc(-c3ccc4c(c3)OCO4)o2)c1)N1CCOCC1`: the pIC50 is 4.80. For the compound `CN(C)CCOc1ccc(N2CCN(S(=O)(=O)c3ccc(Cl)cc3)CC2)cc1`, the pIC50 was 4.80. With `O=C(NCCc1ccccc1Cl)c1cccn1-c1cccnc1`, the pIC50 is 4.49.

For `CC1=C(C(=O)Nc2ccc(Cl)cc2)C(c2ccncc2)n2ncc(C(=O)Nc3ccccc3)c2N1` (centres undefined), the negative logarithm of the IC50 (pIC50) is 4.49.

Turning to `O=C(Nc1ccc(C(=O)N2CCCC2c2ccc3c(c2)OCCCO3)cc1)c1ccco1` (centres undefined), the IC50 was > 50 µM (inactive). On to `CS(=O)(=O)NC1CCC(Oc2cc3cnccc3cc2-c2ccsc2)CC1` (centres undefined), for which the pIC50 is 4.80.

As to `CS(=O)(=O)c1cccc(-c2cnc(N)c3c(-c4ccc(CO)cc4)csc23)c1`, the pIC50 was 4.60.

On to `Cc1cc(C#N)c([N+](=O)[O-])cc1Br`, for which the pIC50 was 4.70. In the case of `Cc1nn(C2CCS(=O)(=O)C2)c(C)c1CN(C)C(=O)C=Cc1sc2ccccc2c1Cl` (centres undefined), the IC50 is > 50 µM (inactive). Regarding `Clc1ccc(Sc2cnccc2N2CCOCC2)cc1`, the IC50 is > 50 µM (inactive).

Take `Cc1cccc(NS(=O)(=O)c2cnc3sc(C)cn3c2=O)c1`: the IC50 was > 50 µM (inactive). As for `Cn1cncc1CN1CCC2(CC1)COC(Cc1ccccc1)C2` (centres undefined), the pIC50 is 4.60. `CNc1c(C(N)=O)c(-c2ccc3scnc3c2)nn1CC(F)(F)F`: the pIC50 is 4.70. The same measure, in the same setting: the value for `COc1ccc2ncc(F)c(NC(=O)C3(O)CCC(NCc4ccc5c(c4)OCCO5)CC3)c2n1` (centres undefined) was 5.10. For `COc1ccc(CN2CCCCC2c2nc(-c3cccnc3)no2)cc1` (centres undefined), the IC50 is > 50 µM (inactive). As to `CC(=O)Nc1ccc(-c2noc(CC3CCCN(Cc4cccc(F)c4C)C3)n2)cc1` (centres undefined), the pIC50 is 4.60. Take `CCC(=O)Nc1ccc(-c2nc3ccc(Cl)cc3[nH]2)cc1`: the IC50 is > 50 µM (inactive).
